Measured values: ChEMBL document CHEMBL1201862, “PubChem BioAssay data set” (2004)
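Cultured in 96-well plates, cells were exposed to test compound for 48 hours across five concentrations. GI50 marks 50% less growth.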 Active and inactive are the calls of the source. Rule as the data show it: active = GI50 up to about 1.1 µM and inactive = higher.

Assays:
Assay in all cases: growth of human tumour cells (NCI), 48 h
SF-539 = system: SF-539
HCT-116 = system: HCT-116
SK-MEL-28 = system: SK-MEL-28
SNB-19 = system: SNB-19
OVCAR-8 = system: OVCAR-8
UACC-62 = system: UACC-62
SK-MEL-5 = system: SK-MEL-5
RXF 393 = system: RXF 393
COLO 205 = system: COLO 205
MCF7 = system: MCF7
ACHN = system: ACHN
NCI-H460 = system: NCI-H460
SK-OV-3 = system: SK-OV-3
OVCAR-4 = system: OVCAR-4
SF-268 = system: SF-268
K562 = system: K562
UO-31 = system: UO-31
OVCAR-3 = system: OVCAR-3
NCI-H23 = system: NCI-H23

| SMILES | GI50 (SF-539) | GI50 (HCT-116) | GI50 (SK-MEL-28) | GI50 (SNB-19) | GI50 (OVCAR-8) | GI50 (UACC-62) | GI50 (SK-MEL-5) | GI50 (RXF 393) | GI50 (COLO 205) | GI50 (MCF7) | GI50 (ACHN) | GI50 (NCI-H460) | GI50 (SK-OV-3) | GI50 (OVCAR-4) | GI50 (SF-268) | GI50 (K562) | GI50 (UO-31) | GI50 (OVCAR-3) | GI50 (NCI-H23) |
| --- | --- | --- | --- | --- | --- | --- | --- | --- | --- | --- | --- | --- | --- | --- | --- | --- | --- | --- | --- |
| COc1ccc(C(=O)/C=C/c2ccc(OCCCOc3ccc(/C=C/C(=O)c4ccc(OC)cc4)cc3)cc2)cc1 | 28.8 µM (inactive) | 24.7 µM (inactive) | 63 µM (inactive) | > 100 µM (inactive) | > 100 µM (inactive) | > 100 µM (inactive) | > 100 µM (inactive) | > 100 µM (inactive) | > 100 µM (inactive) | > 100 µM (inactive) | > 100 µM (inactive) | > 100 µM (inactive) | > 100 µM (inactive) | 60.7 µM (inactive) | 52.2 µM (inactive) | > 100 µM (inactive) | > 100 µM (inactive) |  |  |
| c1coc(-c2nccc3c2[nH]c2ccccc23)c1 | > 100 µM (inactive) | > 100 µM (inactive) | > 100 µM (inactive) | > 100 µM (inactive) | > 100 µM (inactive) | > 100 µM (inactive) | > 100 µM (inactive) | > 100 µM (inactive) | 17.5 µM (inactive) | > 100 µM (inactive) | > 100 µM (inactive) | > 100 µM (inactive) | > 100 µM (inactive) | > 100 µM (inactive) | > 100 µM (inactive) | > 100 µM (inactive) |  | > 100 µM (inactive) | > 100 µM (inactive) |
| CCCCCCCC1(N=[N+]=[N-])C(=O)c2ccccc2N(C)C1=O (configuration not stated) | > 100 µM (inactive) | 61 µM (inactive) | > 100 µM (inactive) | > 100 µM (inactive) | 86.5 µM (inactive) | 72.9 µM (inactive) | 69.8 µM (inactive) | 69.8 µM (inactive) | > 100 µM (inactive) | > 100 µM (inactive) | 75 µM (inactive) | > 100 µM (inactive) | > 100 µM (inactive) | 87.3 µM (inactive) | 93.8 µM (inactive) |  |  | 49 µM (inactive) | 48 µM (inactive) |
| CC1CCC2(CC1)N=C1CCC(C)CC1C1(CCC(C)CC1)N2 (configuration not stated) | > 100 µM (inactive) | 36 µM (inactive) | > 100 µM (inactive) | > 100 µM (inactive) | > 100 µM (inactive) | > 100 µM (inactive) | 29.7 µM (inactive) | > 100 µM (inactive) | > 100 µM (inactive) | > 100 µM (inactive) | > 100 µM (inactive) | > 100 µM (inactive) | > 100 µM (inactive) | > 100 µM (inactive) |  | 30.4 µM (inactive) | > 100 µM (inactive) | > 100 µM (inactive) | 95.7 µM (inactive) |
| C=C(C)C1Cc2c(cc(OC)c3c(=O)c4cccc(O)c4oc23)O1 (configuration not stated) | 18.4 µM (inactive) | 24.8 µM (inactive) | 25.5 µM (inactive) | 26.3 µM (inactive) | 21.6 µM (inactive) | 18 µM (inactive) | 16.5 µM (inactive) | 19.4 µM (inactive) | 56.9 µM (inactive) | 0.024 µM (active) | 18.2 µM (inactive) | 28.6 µM (inactive) | 19.5 µM (inactive) | 18.7 µM (inactive) | 20.4 µM (inactive) | > 100 µM (inactive) | 18 µM (inactive) |  | 26 µM (inactive) |
| COc1ccc(C2C3CCc4ccccc4C3=NN2S(=O)(=O)c2cccc(C(=O)O)c2OC)cc1 (configuration not stated) | 6.21 µM (inactive) | 10.3 µM (inactive) |  | 25.4 µM (inactive) | 23.6 µM (inactive) | 6.14 µM (inactive) | 6.62 µM (inactive) | 13.1 µM (inactive) | 1.84 µM (inactive) | 2.19 µM (inactive) | 7.83 µM (inactive) | 5.66 µM (inactive) | 1.8 µM (inactive) | 19.4 µM (inactive) | 14 µM (inactive) | 4.06 µM (inactive) | 19.4 µM (inactive) | 5.35 µM (inactive) | 52.4 µM (inactive) |
| CCOC(=O)c1ccc(NCC#CCN2CCCCC2)cc1 | > 100 µM (inactive) | 96.8 µM (inactive) | > 100 µM (inactive) | > 100 µM (inactive) |  | 50.1 µM (inactive) | 38.5 µM (inactive) | > 100 µM (inactive) | 41.9 µM (inactive) | 73.8 µM (inactive) | 57.5 µM (inactive) |  | > 100 µM (inactive) | > 100 µM (inactive) | > 100 µM (inactive) | 26.8 µM (inactive) | > 100 µM (inactive) | > 100 µM (inactive) | > 100 µM (inactive) |
| OC[C@@H](O)[C@H](O)[C@@H](O)/C=N/Nc1ccc(Cl)nn1 | > 100 µM (inactive) | > 100 µM (inactive) | > 100 µM (inactive) | > 100 µM (inactive) | > 100 µM (inactive) | > 100 µM (inactive) | > 100 µM (inactive) | > 100 µM (inactive) | > 100 µM (inactive) | > 100 µM (inactive) | > 100 µM (inactive) | > 100 µM (inactive) | > 100 µM (inactive) | > 100 µM (inactive) | > 100 µM (inactive) |  |  | > 100 µM (inactive) | > 100 µM (inactive) |
| Clc1cc(Cl)cc(/C=N/C23CC4CC(CC(C4)C2)C3)c1 | > 10 µM (inactive) | > 10 µM (inactive) | > 10 µM (inactive) | > 10 µM (inactive) | > 10 µM (inactive) | > 10 µM (inactive) | > 10 µM (inactive) | > 10 µM (inactive) | > 10 µM (inactive) | 7.59 µM (inactive) | > 10 µM (inactive) | > 10 µM (inactive) | > 10 µM (inactive) | > 10 µM (inactive) | > 10 µM (inactive) | > 10 µM (inactive) |  | > 10 µM (inactive) | > 10 µM (inactive) |
| CSc1ccc(/C=C2\N=C(c3ccccc3)N(c3nc4c(Cl)cc(Cl)cc4s3)C2=O)cc1 | 34.5 µM (inactive) | 19.1 µM (inactive) | 31.1 µM (inactive) | 28.9 µM (inactive) | 38.5 µM (inactive) | 24.4 µM (inactive) | 16.2 µM (inactive) | 41 µM (inactive) | 33.4 µM (inactive) | 24.9 µM (inactive) | 27 µM (inactive) | 25.6 µM (inactive) | 25.9 µM (inactive) | 21.2 µM (inactive) | 28.2 µM (inactive) | 26.7 µM (inactive) | 22.2 µM (inactive) | 18.9 µM (inactive) |  |
| c1ccc(-c2cc(-c3cccs3)c(-c3cccs3)s2)cc1 | > 100 µM (inactive) | 19.6 µM (inactive) |  |  | > 100 µM (inactive) | > 100 µM (inactive) | 33.7 µM (inactive) | 16.6 µM (inactive) | 47.3 µM (inactive) | 16.6 µM (inactive) | 70.5 µM (inactive) | 56.8 µM (inactive) | > 100 µM (inactive) | 14.3 µM (inactive) | > 100 µM (inactive) |  | 26.2 µM (inactive) | 56.2 µM (inactive) | 19.1 µM (inactive) |
